Reference: PubChem BioAssay (NCI)
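Test compounds were applied to cells in 96-well plates for 48 hours at 5 doses. At the GI50, growth is halved. TGI denotes the concentration required for complete inhibition of growth.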

How the values were obtained:
Assay in all cases: NCI anticancer screen, dose series, 48 h
[1] = tested on: SF-539 CNS
[2] = tested on: NCI-H460 lung
[3] = tested on: BT-549 breast
[4] = tested on: UACC-62 melanoma
[5] = tested on: SR leukemia
[6] = tested on: HCT-15 colon
[7] = tested on: SNB-19 CNS
[8] = tested on: OVCAR-5 ovarian
[9] = tested on: UO-31 renal
[10] = tested on: SN12C renal
[11] = tested on: 786-0 renal
[12] = tested on: MDA-MB-231 breast
[13] = tested on: MOLT-4 leukemia
[14] = tested on: A498 renal
[15] = tested on: COLO 205 colon
[16] = tested on: PC-3 prostate
[17] = tested on: IGROV1 ovarian
[18] = tested on: RPMI-8226 leukemia
[19] = tested on: HCT-116 colon
[20] = tested on: NCI/ADR-RES ovarian
[21] = tested on: U251 CNS
[22] = tested on: NCI-H522 lung
[23] = tested on: HOP-62 NSCLC
[24] = tested on: SNB-75 CNS
[25] = tested on: LOX IMVI melanoma
[26] = tested on: T-47D breast
[27] = tested on: TK-10 renal
[28] = tested on: CCRF-CEM leukemia
[29] = tested on: UACC-257 melanoma
[30] = tested on: SF-268 CNS
[31] = tested on: MALME-3M melanoma
[32] = tested on: SW-620 colon
[33] = tested on: SK-MEL-28 melanoma
[34] = tested on: SK-MEL-5 melanoma
[35] = tested on: EKVX NSCLC
[36] = tested on: NCI-H226 lung
[37] = tested on: DU-145 prostate
[38] = tested on: RXF 393 renal
[39] = tested on: HOP-92 NSCLC
[40] = tested on: SK-MEL-2 melanoma
[41] = tested on: K-562 leukemia
[42] = tested on: OVCAR-4 ovarian
[43] = tested on: OVCAR-8 ovarian
[44] = tested on: SF-295 CNS
[45] = tested on: A549 NSCLC
[46] = tested on: HL-60(TB) leukemia
[47] = tested on: ACHN renal
[48] = tested on: MDA-MB-435
[49] = tested on: HCC-2998 colon
[50] = tested on: OVCAR-3 ovarian
[51] = tested on: KM12 colon
[52] = tested on: HS 578T breast
[53] = tested on: HT29 colon
[54] = tested on: NCI-H23 lung
[55] = tested on: M14 melanoma
[56] = tested on: SK-OV-3 ovarian
[57] = tested on: MCF7 breast

`CCCCCCCCCCCCCCNC(=O)Nc1ccc(Cl)c(Cl)c1` was tested, and the GI50 [1] was 4.07 µM, the TGI [1] was > 100 µM and the GI50 [2] was 3.4 µM. The TGI [2] was > 100 µM, the GI50 [3] was 1.87 µM and the TGI [3] was 6.16 µM. The GI50 [4] was 3.69 µM, the TGI [4] was > 100 µM and the TGI [5] was > 23.6 µM. For the same compound, the GI50 [6] was 3.21 µM, the TGI [6] was > 100 µM and the GI50 [7] was 4.16 µM. The TGI [7] was > 100 µM, the GI50 [8] was 3.69 µM and the TGI [8] was > 100 µM. The GI50 [9] was 1.57 µM, the GI50 [10] was 2.85 µM and the TGI [10] was > 100 µM. For the same compound, the GI50 [11] was 2.79 µM, the TGI [11] was > 23.4 µM and the GI50 [12] was 2.56 µM. The TGI [12] was 7.64 µM, the GI50 [13] was 1.6 µM and the TGI [13] was > 25.1 µM. The GI50 [14] was 2.13 µM, the TGI [14] was > 26.4 µM and the GI50 [15] was 1.81 µM. For the same compound, the TGI [15] was 3.48 µM, the GI50 [16] was 2.67 µM and the TGI [16] was > 37.1 µM. It also gave a GI50 [17] of 1.33 µM, a GI50 [18] of 1.24 µM and a TGI [18] of 3.26 µM. The GI50 [19] was 2.37 µM, the TGI [19] was > 23.3 µM and the GI50 [20] was 3.02 µM. For the same compound, the TGI [20] was > 28.4 µM, the GI50 [21] was 3.15 µM and the TGI [21] was > 100 µM. For the same compound, the GI50 [22] was 1.66 µM, the TGI [22] was 5.75 µM and the GI50 [23] was 2.77 µM. The TGI [23] was > 23.1 µM, the GI50 [24] was 1.98 µM and the TGI [24] was 9.57 µM. The GI50 [25] was 3.23 µM, the TGI [25] was > 100 µM and the GI50 [26] was 3.17 µM. For the same compound, the TGI [26] was > 30 µM, the GI50 [27] was 2.34 µM and the TGI [27] was 7.4 µM. It also gave a GI50 [28] of 2.5 µM, a TGI [28] of 11.1 µM and a GI50 [29] of 2.78 µM. The TGI [29] was 11.3 µM, the GI50 [30] was 3.72 µM and the TGI [30] was > 100 µM. The GI50 [31] was 1.39 µM, the TGI [31] was 4.59 µM and the GI50 [32] was 3.18 µM. For the same compound, the TGI [32] was > 100 µM, the GI50 [33] was 3.7 µM and the TGI [33] was > 100 µM. It also gave a GI50 [34] of 1.68 µM, a TGI [34] of 3.23 µM and a GI50 [35] of 1.97 µM. For the same compound, the TGI [35] was 6.15 µM, the GI50 [36] was 3.21 µM and the TGI [36] was > 100 µM. For the same compound, the GI50 [37] was 3.59 µM, the TGI [37] was > 100 µM and the GI50 [38] was 4.01 µM. For the same compound, the TGI [38] was > 26.3 µM, the GI50 [39] was 2.75 µM and the TGI [39] was 8.65 µM. The GI50 [40] was 1.93 µM, the TGI [40] was 5.69 µM and the GI50 [41] was 8.04 µM. For the same compound, the TGI [41] was > 100 µM, the GI50 [42] was 2.79 µM and the TGI [42] was > 100 µM. For the same compound, the GI50 [43] was 3.16 µM, the TGI [43] was > 31.4 µM and the GI50 [44] was 2.6 µM. For the same compound, the TGI [44] was > 24.8 µM, the GI50 [45] was 3.34 µM and the TGI [45] was > 100 µM. The GI50 [46] was 2.59 µM, the TGI [46] was > 40.1 µM and the GI50 [47] was 3.17 µM. The TGI [47] was > 100 µM, the GI50 [48] was 2.82 µM and the TGI [48] was 8.33 µM. The GI50 [49] was 2.85 µM, the TGI [49] was > 100 µM and the GI50 [50] was 2.47 µM. It also gave a TGI [50] of 6.31 µM, a GI50 [51] of 3 µM and a TGI [51] of 8.44 µM. For the same compound, the GI50 [52] was 3.14 µM, the TGI [52] was 15 µM and the GI50 [53] was 3.27 µM. The TGI [53] was > 100 µM, the GI50 [54] was 2.86 µM and the TGI [54] was 26.3 µM. The GI50 [55] was 2.89 µM, the TGI [55] was > 44.3 µM and the GI50 [56] was 3 µM. The TGI [56] was > 28.3 µM, the GI50 [57] was 2.86 µM and the TGI [57] was > 36.1 µM.
